This experiment in a line: Pro-Drug DTNB assay with or without esterase. It is filed as biochemical. As to conditions: 22.5 μM prodrug, 100 μM DTNB; for Reduction Without Esterase: pH 7.5, no enzyme; for Reduction With Esterase: pH 7.5, porcine liver esterase. As to the method: The present invention provides a series of mucolytic pro-drugs (see R^6=other than H) that are activated by common enzymes that are present in the extracellular milieu (e.g., nucelotidases, phosphatases, and esterases). As a proof-of-concept, the reducing kinetics of the pro-drug compound 46 in the presence or absence of an activating esterase were tested.
This assay was designed to determine whether prodrug caps added on to our monothiol mucolytic compounds can be cleaved from the molecule. If so, the outcome would be an “active” compound that is able to reduce the S—S bond in DTNB. Similar to the activity concentration version of the DTNB assay described above, monothiol prodrugs were mixed at a final concentration of 22.5 μM with excess DTNB (100 μM final) in 1 mL 50 mM Tris-HCl buffer (pH 7.5) and maximum Abs412 was measured. In the absence of a purified hydrolytic enzyme (e.g. porcine liver esterase; Sigma), the amount of DTNB cleavage observed is an indicator for stability of the cap on the prodrug compound (i.e. if the prodrug remains intact in solution the Abs412=0). Next, 5 uL of esterase (bought as an ammonium sulfate suspension that is subsequently centrifuged to isolate the esterase and then dissolved in reaction buffer prior to assaying) is combined with excess DTNB (100 μM final) and 22.5 μM pro-drug in 1 mL 50 mM Tris-HCl buffer (pH 7.5). Cleavage of the prodrug cap can be visualized in real time via DTNB cleavage at Abs412 by the esterase-liberated monothiol molecule.

Where a name gives a salt, the structure may show the parent alone.

Take `Cl.O=C(SCc1cccc(OCCN(C[C@H](O)[C@@H](O)[C@H](O)[C@H](O)CO)C[C@H](O)[C@@H](O)[C@H](O)[C@H](O)CO)c1)c1ccco1` [Compound 9, S-3-(2-(bis((2S,3R,4R,5R)-2,3,4,5,6-pentahydroxyhexyl)amino)ethoxy)benzyl furan-2-carbothioate Hydrochloride]: the “Reduction Without Esterase” value is “No” and the “Reduction With Esterase” value is recorded as “Yes”.
Turning to `Cl.O=C(SCc1cccc(OCCN(C[C@@H](O)[C@@H](O)[C@H](O)[C@H](O)CO)C[C@@H](O)[C@@H](O)[C@H](O)[C@H](O)CO)c1)c1ccco1` [Compound 10, S-3-(2-(bis((2R,3R,4R,5R)-2,3,4,5,6-pentahydroxyhexyl)amino)ethoxy)benzylfuran-2-carbothioate Hydrochloride], the “Reduction Without Esterase” value was “No” and the “Reduction With Esterase” value is “Yes”.
Turning to `CC(C)C(=O)SCc1cccc(OCCN(C[C@H](O)[C@@H](O)[C@H](O)[C@H](O)CO)C[C@H](O)[C@@H](O)[C@H](O)[C@H](O)CO)c1` [Compound 14, S-3-(2-(bis((2S,3R,4R,5R)-2,3,4,5,6-entahydroxyhexyl)amino)ethoxy)benzyl 2-methylpropanethioate Hydrochloride], the “Reduction Without Esterase” value is “No” and the “Reduction With Esterase” value is given as “Yes”.
As to `CC(C)C(=O)SCc1cccc(OCCN(C[C@@H](O)[C@@H](O)[C@H](O)[C@H](O)CO)C[C@@H](O)[C@@H](O)[C@H](O)[C@H](O)CO)c1.Cl` [Compound 15a, S-3-(2-(bis((2R,3R,4R,5R)-2,3,4,5,6-pentahydroxyhexyl)amino)ethoxy)benzyl 2-methylpropanethioate Hydrochloride], the “Reduction Without Esterase” value was “No” and the “Reduction With Esterase” value was “Yes”.
`CC(=O)SCc1cccc(OCCN(C[C@H](O)[C@@H](O)[C@H](O)[C@H](O)CO)C[C@H](O)[C@@H](O)[C@H](O)[C@H](O)CO)c1.Cl` [Compound 17, S-3-(2-(bis((2S,3R,4R,5R)-2,3,4,5,6-pentahydroxyhexyl)amino)ethoxy)benzyl Ethanethioate Hydrochloride]: the “Reduction Without Esterase” value was “No” and the “Reduction With Esterase” value is “Yes”.
With `CC(=O)SCc1cccc(OCCN(C[C@@H](O)[C@@H](O)[C@H](O)[C@H](O)CO)C[C@@H](O)[C@@H](O)[C@H](O)[C@H](O)CO)c1` [Compound 18, S-3-(2-(bis((2R,3R,4R,5R)-2,3,4,5,6-pentahydroxyhexyl)amino)ethoxy)benzyl Ethanethioate], the “Reduction Without Esterase” value is “No” and the “Reduction With Esterase” value is “Yes”.
Turning to `CCC(=O)SCc1cccc(OCCN(C[C@H](O)[C@@H](O)[C@H](O)[C@H](O)CO)C[C@H](O)[C@@H](O)[C@H](O)[C@H](O)CO)c1.Cl` [Compound 24, S-3-(2-(bis((2S,3R,4R,5R)-2,3,4,5,6-pentahydroxyhexyl)amino)ethoxy)benzyl Propanethioate Hydrochloride], the “Reduction Without Esterase” value was “No” and the “Reduction With Esterase” value was “Yes”.
Consider `CCC(=O)SCc1cccc(OCCN(C[C@@H](O)[C@@H](O)[C@H](O)[C@H](O)CO)C[C@@H](O)[C@@H](O)[C@H](O)[C@H](O)CO)c1.Cl` [Compound 25, S-3-(2-(bis((2R,3R,4R,5R)-2,3,4,5,6-pentahydroxyhexyl)amino)ethoxy)benzyl Propanethioate Hydrochloride], for which the “Reduction Without Esterase” value is on record as “No” and the “Reduction With Esterase” value was “Yes”.
For `CC(C)C(=O)SCc1ccc(OCCN(C[C@@H](O)[C@@H](O)[C@H](O)[C@H](O)CO)C[C@@H](O)[C@@H](O)[C@H](O)[C@H](O)CO)cc1.Cl` [Compound 59, S-4-(2-(bis((2R,3R,4R,5R)-2,3,4,5,6-pentahydroxyhexyl)amino)ethoxy)benzyl 2-methylpropanethioate Hydrochloride], the “Reduction Without Esterase” value was “No” and the “Reduction With Esterase” value is “Yes”.

These data come from US10106551B2, “Monothiol mucolytic agents” (PARION SCIENCES, INC., priority 2015, dated 2018).
